According to US6861420B2, “N-substituted 1,2,4,5-tetrahydro-1H-benzo[d]azepine compounds” (Pharmacia & Upjohn Company, priority 2001, dated 2005):

Structure (SMILES)	melting point
COc1ccc(Oc2ccc(NC(=O)N3CCc4ccccc4CC3)cn2)cc1 [Example 9, N-[6-(4-Methoxyphenoxy)pyridin-3-yl]-1,2,4,5-tetrahydro-3H-3-benzazepine-3-carboxamide]	156 to 157 °C
Cc1ncccc1Oc1ccc(NC(=O)N2CCc3ccc(-n4c(C)ccc4C)cc3CC2)cn1 [Example 2, 7-(2,5-Dimethyl-1H-pyrrol-1-yl)-N-{6-[(2-methylpyridin-3-yl)oxy]pyridin-3-yl}-1,2,4,5-tetrahydro-3H-3-benzazepine-3-carboxamide]	101 °C (dec.)
O=C(Nc1cccnc1Cl)N1CCc2ccccc2CC1 [Example 6, N-[2-Chloropyridin-3-yl]-1,2,4,5-tetrahydro-3H-3-benzazepine-3-carboxamide]	120 to 122 °C
O=C(Nc1ccc(Oc2ccccc2F)nc1)N1CCc2ccccc2CC1 [Example 11, N-[6-(2-Fluorophenoxy)pyridin-3-yl]-1,2,4,5-tetrahydro-3H-3-benzazepine-3-carboxamide]	170 to 172 °C
Cc1ncccc1Oc1ccc(NC(=O)N2CCc3ccccc3CC2)cn1 [Example 1, N-{6-[(2-methylpyridin-3-yl)oxy]pyridin-3-yl}-1,2,4,5-tetrahydro-3H-3-benzazepine-3-carboxamide]	171 to 173 °C
O=C(N[C@@H]1CN2CCC1CC2)N1CCc2ccccc2CC1	128 to 132 °C
O=C(NC1CN2CCC1CC2)N1CCc2ccccc2CC1 (stereo not shown)	> 120 °C (dec.)
Cc1cc(Oc2ccc(NC(=O)N3CCc4ccccc4CC3)cn2)cc(C)c1Cl [Example 16, N-[6-(4-Chloro-3,5-dimethylphenoxy)pyridin-3-yl]-1,2,4,5-tetrahydro-3H-3-benzazepine-3-carboxamide]	208 to 209 °C
O=C(Nc1ccc(Oc2ccc(Cl)cc2)nc1)N1CCc2ccccc2CC1 [Example 10, N-[6-(4-Chlorophenoxy)pyridin-3-yl]-1,2,4,5-tetrahydro-3H-3-benzazepine-3-carboxamide]	135 to 137 °C
O=C(Nc1ccc(Cl)nc1)N1CCc2ccccc2CC1 [Example 7, N-(6-chloropyridin-3-yl)-1,2,4,5-tetrahydro-3H-3-benzazepine-3-carboxamide]	170 to 172 °C
O=C(Nc1cccnc1)N1CCc2ccccc2CC1 [Example 5, 1,2,4,5-Tetrahydro-benzo[d]azepine-3-carboxylic acid pyridin-3-ylamide]	144 to 146 °C
CC(C)Oc1ccccc1Oc1ccc(NC(=O)N2CCc3ccccc3CC2)cn1 [Example 12, N-[6-(2-isopropoxyphenoxy)pyridin-3-yl]-1,2,4,5-tetrahydro-3H-3-benzazepine-3-carboxamide]	149 to 152 °C
O=C(NC1CCCNC1)N1CCc2ccccc2CC1 (stereo not shown) [Example 17, N-Piperidin-3-yl-1,2,4,5-tetrahydro-3H-3-benzazepine-3-carboxamide]	214 to 216 °C
O=C(Nc1ccc(Oc2ccc(Cl)cc2Cl)nc1)N1CCc2ccccc2CC1 [Example 15, N-[6-(2,4-Dichlorophenoxy)pyridin-3-yl]-1,2,4,5-tetrahydro-3H-3-benzazepine-3-carboxamide]	154 to 155 °C
Cc1cc(Cl)ccc1Oc1ccc(NC(=O)N2CCc3ccccc3CC2)cn1 [Example 13, N-[6-(2-Methyl-4-chlorophenoxy)pyridin-3-yl]-1,2,4,5-tetrahydro-3H-3-benzazepine-3-carboxamide]	151 to 153 °C
Cc1cc(Oc2ccc(NC(=O)N3CCc4ccccc4CC3)cn2)ccc1Cl [Example 14, N-[6-(3-Methyl-4-chlorophenoxy)pyridin-3-yl]-1,2,4,5-tetrahydro-3H-3-benzazepine-3-carboxamide]	171 to 173 °C
